From patent publication US20240287046A1, “COMPOUNDS AND RADIOLIGANDS FOR TARGETING NEUROTENSIN RECEPTOR AND USES THEREOF” (Full-Life Technologies HK Limited, priority 2022, published 2024)

Tests used:
[1] = test system: ASPC-1 tumor-bearing mice; test: PET/CT imaging of ^68Ga-labeled complexes; type: in vivo; conditions: over 180 minutes
Description: ASPC-1 tumor-bearing mice were IV-injected with 150 μCi of ^68Ga-labeled compounds, anesthetized under 2% isoflurane/oxygen gas and placed on the scanner. PET images were acquired in one bed position for 10 min using an animal PET/SPECT/CT (Inliview-3000B). Whole-body PET images were acquired at 30, 60, 120 and 180 minutes after injection of the radiotracers.

[2] = test system: pancreatic cancer patients; conditions: cited from earlier work
[3] = test system: ASPC-1 tumor-bearing mice; test: Biodistribution of radionuclide labeled complexes in ASPC-1 tumor-bearing mice; type: in vivo, BALB/c nude mice
Outline: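 Radiolabeled compound (~30-50 μCi, ~1.11-1.85 MBq, specific activity 30-250 μCi/nmol) was injected i.v. via tail vein into nude mice carrying 0.05-0.50 g subcutaneous NTSR-1-positive human tumors. At set times, tissues were collected, weighed and γ-counted; % ID and % ID/g were calculated.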

human NTSR-1 [4] = target: T1, human NTSR-1 (Homo sapiens (Human), UniProt P30989); test: FLIPR assay, inhibition of Neurotensin-induced intracellular-calcium mobilization; type: cell-based; conditions: HEK293 cells stably expressing human NTSR-1, mean; read-out: IC50 (nM) in FLIPR Assays
T1 sequence (P30989 whole entry): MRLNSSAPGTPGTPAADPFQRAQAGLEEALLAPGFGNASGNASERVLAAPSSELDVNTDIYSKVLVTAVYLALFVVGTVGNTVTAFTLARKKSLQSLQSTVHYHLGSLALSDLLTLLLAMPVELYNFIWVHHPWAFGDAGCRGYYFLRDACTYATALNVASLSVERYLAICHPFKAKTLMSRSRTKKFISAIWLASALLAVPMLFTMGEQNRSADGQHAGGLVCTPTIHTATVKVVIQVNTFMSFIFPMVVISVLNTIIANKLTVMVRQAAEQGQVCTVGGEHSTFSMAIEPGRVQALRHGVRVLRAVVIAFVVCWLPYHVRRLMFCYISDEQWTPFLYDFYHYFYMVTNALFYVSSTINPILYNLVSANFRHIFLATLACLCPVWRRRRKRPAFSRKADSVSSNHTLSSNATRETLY
Description: Binding affinities of the representative compounds were also evaluated by FLIPR assay. Neurotensin receptor 1 belongs to the G-protein coupled receptors (GPCR) family. Activation of NTSR-1 by its ligand Neurotensin can induce intracellular-calcium mobilization. In FLIPR assay, the test compound and Neurotensin were incubated together with cells expressing NTSR-1 to measure inhibition of the intracellular-calcium mobilization by the test compound so that to evaluate its binding affinity.
Briefly, HEK293 cells stably expressing human NTSR-1 were plated in 384-well plates. 20 ul cell suspension at a concentration of 10×10^5 per ml was seeded in each well and incubated at 37° C. 5% CO2 overnight. Then the cells in each well were mixed with 20 ul probenecid assay buffer, 20 ul 8 uM Fluo-4 Direct™ Loading Buffer, 6×EC80 of Neurotensin and 10 μl of the diluted test compound, and incubated at 37° C. 5% CO2 for 50 min followed by incubation at room temperature for 10 min. The plate was then subject to FLIPR analysis.

human NTSR-1 [5] = target: T1, human NTSR-1; test: radioligand competitive binding assay using ^177Lu labeled C-1 as reference radioligand
Description: The binding affinities of test compounds were determined by a radioligand competitive binding assay using ^177Lu labeled C-1 as the reference radioligand.
Briefly, 100 μL HT-29 cells expressing human NTSR-1 at a density of 1˜2×10^6 cells/mL were mixed with binding buffer (RPMI-1640 medium supplemented with 0.25% bovine serum albumin) in each well of the 96-well filter plate (Millipore). Then the cells in each well were incubated with ^177Lu—C-1 (0.55 μCi/well) and the test compound under 37° C. for 1 hr (n=3). After incubation, unbound ^177Lu—C-1 and the test compound in each well was removed by filtration using a Multiscreen vacuum manifold (Millipore) and the cells were further rinsed with the binding buffer for 5 times. The cells from each well were then collected and radioactivity of the cells in each well was individually measured by y counter (2480 WIZARD2, PerkinElmer). The best-fit IC50 value of test compounds (inhibitory concentration when 50% of the bound ^177Lu—C-1 on cells were displaced) were calculated by fitting the data with nonlinear regression using GraphPad Prism 8.0.1.

ASPC-1 tumor = test: In vivo efficacy of ^225Ac therapy; conditions: ASPC-1 tumor-bearing mice; for tumor inhibition compared to the vehicle group: single dose of 18, 37 or 74 KBq; for dose sufficient to achieve the maximal effect: single dose
Description: In vivo efficacy of the ^177Lu labeled complexes and ^225Ac labeled complexes of the present application was evaluated in ASPC-1 tumor-bearing mice. For ^177Lu therapy study, animals in each group were dosed with vehicle or 0.6 mCi activity of the radiolabeled complexes at Day 1 and Day 5, respectively. For ^225Ac therapy studies, animals in each group were administered with a single dose of vehicle, 18, 37 or 74 KBq activity of the radiolabeled complexes, respectively.
The tumor volume (V) was determined according to the equation (V=[…]×L×W×H) at different time points, where L is the longest axis and W is the perpendicular axis to L, and H is the perpendicular axis to L and W plane. Endpoint (sacrifice) criteria were defined as either when the tumor volume exceeded 1.5 cm^3, or 20% body weight loss.

COc1cccc(OC)c1-c1cc(C(=O)NC2(C(=O)O)C3CC4CC(C3)CC2C4)nn1-c1ccc(N(CCCN(C)C)C(=O)COCCOCCNC(=O)CN2CCN(CC(=O)[O-])CCN(CC(=O)[O-])CCN(CC(=O)[O-])CC2)cc1C(C)C.[68Ga+3] (stereo not drawn) [^68Ga—I-6]
tumor uptake/retention compared to ^68Ga—C-5 (PET/CT) ([1]; ASPC-1 tumor-bearing mice): stronger tumor uptake/retention
tumor to normal contrast compared to ^68Ga—C-5 (PET/CT) ([1]; such as tumor to liver): better tumor to normal contrast

COc1cccc(OC)c1-c1cc(C(=O)NC2(C(=O)O)C3CC4CC(C3)CC2C4)nn1-c1ccc(C(=O)N(C)CCCN(C)CCCN(C)C(=O)CN2CCN(CC(=O)[O-])CCN(CC(=O)[O-])CCN(CC(=O)[O-])CC2)cc1C(C)C.[177Lu+3] (stereo not drawn) [^177Lu-C-2, reference compound]
dose limiting organ ([2]; human study): kidney
% ID/g (1 h) Blood ([3]; Blood, 1 h): 13.87 ± 0.17 % ID/g
% ID/g (4 h) Blood ([3]; Blood, 4 h): 4.46 ± 0.64 % ID/g
% ID/g (24 h) Blood ([3]; Blood, 24 h): 0.31 ± 0.1 % ID/g
% ID/g (72 h) Blood ([3]; Blood, 72 h): 0.09 ± 0.01 % ID/g
% ID/g (1 h) Femur ([3]; Femur, 1 h): 1.34 ± 0.23 % ID/g
% ID/g (4 h) Femur ([3]; Femur, 4 h): 0.89 ± 0.11 % ID/g
% ID/g (24 h) Femur ([3]; Femur, 24 h): 0.22 ± 0.13 % ID/g
% ID/g (72 h) Femur ([3]; Femur, 72 h): 0.12 ± 0.03 % ID/g
% ID/g (1 h) Heart ([3]; Heart, 1 h): 4.83 ± 1.1 % ID/g
% ID/g (4 h) Heart ([3]; Heart, 4 h): 1.72 ± 0.18 % ID/g
% ID/g (24 h) Heart ([3]; Heart, 24 h): 0.37 ± 0.07 % ID/g
% ID/g (72 h) Heart ([3]; Heart, 72 h): 0.16 ± 0.04 % ID/g
% ID/g (1 h) Intestine ([3]; Intestine, 1 h): 1.98 ± 0.63 % ID/g
% ID/g (4 h) Intestine ([3]; Intestine, 4 h): 1.62 ± 0.41 % ID/g
% ID/g (24 h) Intestine ([3]; Intestine, 24 h): 0.44 ± 0.11 % ID/g
% ID/g (72 h) Intestine ([3]; Intestine, 72 h): 0.15 ± 0.06 % ID/g
% ID/g (1 h) Kidney ([3]; Kidney, 1 h): 3.34 ± 1.53 % ID/g
% ID/g (4 h) Kidney ([3]; Kidney, 4 h): 2.6 ± 0.93 % ID/g
% ID/g (24 h) Kidney ([3]; Kidney, 24 h): 1.36 ± 0.42 % ID/g
% ID/g (72 h) Kidney ([3]; Kidney, 72 h): 0.46 ± 0.08 % ID/g
% ID/g (1 h) Liver ([3]; Liver, 1 h): 2.01 ± 1.1 % ID/g
% ID/g (4 h) Liver ([3]; Liver, 4 h): 2.51 ± 0.12 % ID/g
% ID/g (24 h) Liver ([3]; Liver, 24 h): 1.53 ± 0.93 % ID/g
% ID/g (72 h) Liver ([3]; Liver, 72 h): 0.99 ± 0.37 % ID/g
% ID/g (1 h) Lung ([3]; Lung, 1 h): 3.67 ± 2.25 % ID/g
% ID/g (4 h) Lung ([3]; Lung, 4 h): 1.92 ± 0.99 % ID/g
% ID/g (24 h) Lung ([3]; Lung, 24 h): 0.69 ± 0.14 % ID/g
% ID/g (72 h) Lung ([3]; Lung, 72 h): 0.23 ± 0.06 % ID/g
% ID/g (1 h) Muscle ([3]; Muscle, 1 h): 0.93 ± 0.21 % ID/g
% ID/g (4 h) Muscle ([3]; Muscle, 4 h): 0.31 ± 0.1 % ID/g
% ID/g (24 h) Muscle ([3]; Muscle, 24 h): 0.1 ± 0.05 % ID/g
% ID/g (72 h) Muscle ([3]; Muscle, 72 h): 0.06 ± 0.03 % ID/g
% ID/g (1 h) Pancreas ([3]; Pancreas, 1 h): 0.8 ± 0.47 % ID/g
% ID/g (4 h) Pancreas ([3]; Pancreas, 4 h): 0.27 ± 0.06 % ID/g
% ID/g (24 h) Pancreas ([3]; Pancreas, 24 h): 0.1 ± 0.02 % ID/g
% ID/g (72 h) Pancreas ([3]; Pancreas, 72 h): 0.07 ± 0.03 % ID/g
% ID/g (1 h) Spleen ([3]; Spleen, 1 h): 1.25 ± 0.78 % ID/g
% ID/g (4 h) Spleen ([3]; Spleen, 4 h): 0.49 ± 0.04 % ID/g
% ID/g (24 h) Spleen ([3]; Spleen, 24 h): 0.35 ± 0.3 % ID/g
% ID/g (72 h) Spleen ([3]; Spleen, 72 h): 0.34 ± 0.1 % ID/g
% ID/g (1 h) Stomach ([3]; Stomach, 1 h): 1.35 ± 0.42 % ID/g
% ID/g (4 h) Stomach ([3]; Stomach, 4 h): 0.6 ± 0.23 % ID/g
% ID/g (24 h) Stomach ([3]; Stomach, 24 h): 0.15 ± 0.04 % ID/g
% ID/g (72 h) Stomach ([3]; Stomach, 72 h): 0.05 ± 0 % ID/g
% ID/g (1 h) Tumor ([3]; Tumor, 1 h): 10.34 ± 5.66 % ID/g
% ID/g (4 h) Tumor ([3]; Tumor, 4 h): 16.13 ± 4.47 % ID/g
% ID/g (24 h) Tumor ([3]; Tumor, 24 h): 12.6 ± 3.52 % ID/g
% ID/g (72 h) Tumor ([3]; Tumor, 72 h): 8.03 ± 5.76 % ID/g

COc1cccc(OC)c1-c1cc(C(=O)NC2(C(=O)O)C3CC4CC(C3)CC2C4)nn1-c1ccc(C(=O)N(C)CCCN(C)CCCN(C)C(=O)CN2CCN(CC(=O)O)CCN(CC(=O)O)CCN(CC(=O)O)CC2)cc1C(C)C (stereo not drawn) [Compound C-2, 2,2′,2″-(10-(2-((3-((3-(4-(3-((2-carboxyadamantan-2-yl)carbamoyl)-5-(2,6-dimethoxyphenyl)-1H-pyrazol-1-yl)-3-isopropyl-N-methylbenzamido)propyl)(methyl)amino)propyl)(methyl)amino)-2-oxoethyl)-1,4,7,10-tetraazacyclododecane-1,4,7-triyl)triacetic acid, reference compound]
tumor uptake of the radioligand ([2]; ^177Lu-chelated form, small number of pancreatic cancer patients): clearly observed
IC50 (human NTSR-1 [4]): 45.4 nM
Relative Binding Affinity (human NTSR-1 [5]; Mean IC50 of C-1/Mean IC50 of the test compound): 7.2
potency relative to SR142948 (human NTSR-1 [5]; competitive radioligand binding assay using HT-29 cells): about 40%
AUC (0-72 h) ratio Tumor/Blood ([3]; ^177Lu-labeled complex): 9.0
AUC (0-72 h) ratio Tumor/Kidney ([3]; ^177Lu-labeled complex): 8.80
AUC (0-72 h) ratio Tumor/Liver ([3]; ^177Lu-labeled complex): 7.61
AUC (0-72 h) ratio Tumor/Lung ([3]; ^177Lu-labeled complex): 14.2

COc1cccc(OC)c1-c1cc(C(=O)NC2(C(=O)O)C3CC4CC(C3)CC2C4)nn1-c1ccc(OCCCN(C)CCCN(C)C(=O)CN2CCN(CC(=O)[O-])CCN(CC(=O)[O-])CCN(CC(=O)[O-])CC2)cc1C(C)C.[225Ac+3] (stereo not drawn) [^225Ac—I-7]
tumor inhibition compared to the vehicle group (ASPC-1 tumor): significant tumor inhibition
dose sufficient to achieve the maximal effect (ASPC-1 tumor): 37 KBq

COc1cccc(OC)c1-c1cc(C(=O)NC2(C(=O)O)C3CC4CC(C3)CC2C4)nn1-c1ccc(NC(=O)CCCN(C)CCCN(C)C(=O)CN2CCN(CC(=O)[O-])CCN(CC(=O)[O-])CCN(CC(=O)[O-])CC2)cc1C(C)C.[225Ac+3] (stereo not drawn) [^225Ac—I-5]
tumor inhibition compared to the vehicle group (ASPC-1 tumor): significant tumor inhibition
dose sufficient to achieve the maximal effect (ASPC-1 tumor): 37 KBq
